In ChEMBL document CHEMBL1151390, “Microbial Transformations of Natural Antitumor Agents. 20. Glucosylation of Viridi-catumtoxin” (J Nat Prod, 1982):
The source made the active and inactive calls. The rule behind the calls is not given here.

Test system: P388
Assay: Antitumor activity against mouse P388 cells
Type: functional, cell-based

COc1cc(O)c2c(O[C@@H]3O[C@H](CO)[C@@H](O)[C@H](O)[C@H]3O)c3c(c4c2c1[C@@]1(C4)C(C)=CCCC1(C)C)[C@H](O)[C@@]1(O)CC(O)=C(C(N)=O)C(=O)[C@@]1(O)C3=O
Activity: inactive
